Some results are limits rather than exact numbers.

The test deals with T1, RORγ (Homo sapiens, UniProt P51449).
T1 construct: expressed in transfected cells; host or cells: 293FT cells (Invitrogen), expression vector pFN26A (Promega)
T1 sequence (P51449 269-508 limits assumed): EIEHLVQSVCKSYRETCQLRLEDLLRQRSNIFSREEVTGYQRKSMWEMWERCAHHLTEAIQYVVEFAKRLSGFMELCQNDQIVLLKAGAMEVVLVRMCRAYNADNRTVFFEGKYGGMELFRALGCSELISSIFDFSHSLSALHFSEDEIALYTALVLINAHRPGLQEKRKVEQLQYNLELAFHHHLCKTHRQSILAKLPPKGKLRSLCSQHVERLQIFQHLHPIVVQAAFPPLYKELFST
Description: RORγ GAL4 reporter gene assay (luciferase readout, 293FT cells). It counts as cell-based. The note with it: inhibition of RORγ (GAL4-RORγ-LBD) in transfected 293FT cells, luciferase signal, overnight incubation; read-out: mean pIC50 (converted). The protocol: RORγ GAL4 Reporter Gene Assay
Example inhibitors 1-47 were tested for their ability to inhibit RORγ activity in a RORγ GAL4 reporter gene assay. The assay procedure and results are described below.
RORγ GAL4 Reporter Gene Assay Description
A GAL4 one-hybrid reporter system employing luciferase readout was established to determine inhibition of RORγ in 293FT cells. The RORγ ligand-binding domain (LBD) was fused to the yeast GAL4 DNA binding domain (DBD) and placed under the control of the human cytomegalovirus (CMV) immediate early promoter, using expression vector pFN26A (Promega) and standard recombinant DNA cloning methods. To serve as a control in the assay, a similar vector was generated in which the GAL4-DBD was fused to Herpes simplex virus protein 16 (VP16), a constitutive transcriptional activator.
To monitor the inhibitory effect of compounds on RORγ, a transcriptional reporter construct was used. The pGL4.35 vector (Promega) contains nine copies of the GAL4 Upstream Activator Sequence (UAS). This sequence drives the transcription of the luciferase reporter gene luc2P in response to binding of a fusion protein containing the GAL4 DNA binding domain, as for example expressed by the GAL4-RORγ-LBD and GAL4-VP16 expression vectors described above. To allow a GAL4 fusion protein to drive the expression of the luciferase reporter, the pGL4.35 expression vector and the appropriate GAL4 fusion protein expression vector were bulk transfected in the 293FT cells using standard transfection techniques.
The day after transfection, cells were plated into 96 well plates, test compound was added and the plates were incubated overnight. Subsequently, the firefly luciferase activity was quantified using luciferase detection reagent and luminescence readout.
Detailed Assay Description
293FT cells (Invitrogen) were transfected with a GAL4 fusion protein expression vector (as described above) and the transcriptional reporter construct (pGL4.35, Promega). 60 μL of TransIT-293 transfection reagent (Mirus Bio) was added drop wise to 1500 μl Opti-MEM I Reduced Serum Medium (Invitrogen) and incubated at room temperature (RT) for 5 to 20 minutes. 1500 μL of this reagent mixture was added to 5 μg of GAL4 fusion protein expression vector and 5 μg of the transcriptional reporter construct, and incubated at RT for 20 minutes.
To harvest 293FT cells from a T75 flask, first the culture medium was taken off the cells. Subsequently, the cells were washed with Phosphate Buffered Saline (PBS) (Lonza), after which the PBS was removed. To dissociate the cells, 1 ml of TrypLE Express (Invitrogen) was added to the flask, followed by incubation at RT until the cells visually started to detach. Cells were collected in 5 mL of assay medium (DMEM culture medium (Lonza), 10% dialyzed FBS (Invitrogen) and Pen/Strep (Lonza)) to achieve a single cell suspension. 10×10^6 cells were spun down and re-suspended in 10 mL of assay medium. Subsequently, the cell suspension was added to the transfection mix tube, and then transferred as a whole to a T75 flask (Greiner), followed by overnight (16-24 hours) incubation at 37° C. and 5% CO2.
For compound screening, the cells were harvested (as described above) and counted. 13×10^6 cells were spun down, the supernatant was aspirated and the cells were re-suspended in 17.3 mL of assay medium obtaining a cell suspension of 0.75×10^6 cells/mL. 80 μL of cell suspension (60,000 cells) was plated per well into a white, flat bottom, tissue culture treated, 96 well screening plates (Greiner).
Test compounds were diluted, starting from a 10 mM dimethylsulf oxide (DMSO) stock solution, to serial dilutions in DMSO at 500× the final test concentration. Subsequently, these solutions were diluted to 5× the final test concentration in two 10-fold-dilution steps in assay medium. The final DMSO concentration of the 5× test compound solution was 1%. […]

As to `O=C(Cc1ccc(S(=O)(=O)CC2CC2)cc1)Nc1ccc(-c2ccccc2)c(Oc2ccccc2)c1` [Example 1, 2-(4-cyclopropylmethanesulfonylphenyl)-N-(3-phenoxy-4-phenylphenyl)acetamide], the IC50 is at most 1000 nM.
Take `COc1cccc(Oc2cc(NC(=O)Cc3ccc(S(=O)(=O)CC4CC4)cc3)ccc2-c2cccc(F)c2)c1` [Example 2, 2-(4-cyclopropylmethanesulfonylphenyl)-N-[4-(3-fluorophenyl)-3-(3-methoxyphenoxy)phenyl]acetamide]: the IC50 was at most 100 nM.
Turning to `COc1cccc(Oc2cc(NC(=O)Cc3ccc(S(=O)(=O)CC4CC4)cc3)ccc2-n2cnc(C)c2)c1` [Example 3, 2-(4-cyclopropylmethanesulfonylphenyl)-N-[3-(3-methoxyphenoxy)-4-(4-methyl-1H-imidazol-1-yl)phenyl]acetamide], the IC50 is at most 100 nM.
Next, `O=C(Cc1ccc(S(=O)(=O)CC2CC2)cc1)Nc1ccc(-c2cccc(F)c2)c(Oc2cccc(Cl)c2)c1` [Example 4, N-[3-(3-chlorophenoxy)-4-(3-fluorophenyl)phenyl]-2-(4-cyclopropylmethanesulfonylphenyl)acetamide]: at most 100 nM; `O=C(Cc1ccc(S(=O)(=O)CC2CC2)cc1)Nc1ccc(-c2ccc(F)c(F)c2)c(Oc2cccc(Cl)c2)c1` [Example 5, N-[3-(3-chlorophenoxy)-4-(3,4-difluorophenyl)phenyl]-2-(4-cyclopropylmethanesulfonylphenyl)acetamide]: at most 100 nM.
The figure for `N#Cc1cccc(Oc2cc(NC(=O)Cc3ccc(S(=O)(=O)CC4CC4)cc3)ccc2-c2ccc(F)c(F)c2)c1` [Example 6, N-[3-(3-cyanophenoxy)-4-(3,4-difluorophenyl)phenyl]-2-(4-cyclopropylmethanesulfonylphenyl)acetamide] is at most 100 nM; for `COc1cccc(Oc2cc(NC(=O)Cc3ccc(S(=O)(=O)CC4CC4)cc3)ccc2-n2nccc2C)c1` [Example 7, 2-(4-cyclopropylmethanesulfonylphenyl)-N-[3-(3-methoxyphenoxy)-4-(5-methyl-1H-pyrazol-1-yl)phenyl]acetamide] it is at most 100 nM.
The figure for `O=C(Cc1ccc(S(=O)(=O)CC2CC2)cc1)Nc1ccc(-c2cc(F)cc(F)c2)c(Oc2cccc(Cl)c2)c1` [Example 8, N-[3-(3-chlorophenoxy)-4-(3,5-difluorophenyl)phenyl]-2-(4-cyclopropylmethanesulfonylphenyl)acetamide] is at most 100 nM; for `N#Cc1ccc(-c2ccc(NC(=O)Cc3ccc(S(=O)(=O)CC4CC4)cc3)cc2Oc2cccc(F)c2)cc1` [Example 9, N-[4-(4-cyanophenyl)-3-(3-fluorophenoxy)phenyl]-2-(4-cyclopropylmethanesulfonylphenyl)acetamide] it is at most 100 nM; for `N#Cc1cccc(-c2ccc(NC(=O)Cc3ccc(S(=O)(=O)CC4CC4)cc3)cc2Oc2cccc(Cl)c2)c1` [Example 10, N-[3-(3-chlorophenoxy)-4-(3-cyanophenyl)phenyl]-2-(4-cyclopropylmethanesulfonylphenyl)acetamide] it is at most 100 nM.
Turning to `O=C(Cc1ccc(S(=O)(=O)CC2CC2)cc1)Nc1ccc(-c2cccc(F)c2)c(Oc2cccc(C(F)(F)F)c2)c1` [Example 11, 2-(4-cyclopropylmethanesulfonylphenyl)-N-[4-(3-fluorophenyl)-3-[3-(trifluoromethyl)phenoxy]phenyl]acetamide], the IC50 was at most 100 nM.
`O=C(Cc1ccc(S(=O)(=O)CC2CC2)cc1)Nc1ccc(-c2ccc(F)cc2)c(Oc2cccc(F)c2)c1` [Example 12, 2-(4-cyclopropylmethanesulfonylphenyl)-N-[3-(3-fluorophenoxy)-4-(4-fluorophenyl)phenyl]acetamide]: the IC50 was at most 100 nM.
Next, `O=C(Cc1ccc(S(=O)(=O)CC2CC2)cc1)Nc1ccc(-c2cccc(F)c2)c(Oc2cc(F)cc(F)c2)c1` [Example 13, 2-(4-cyclopropylmethanesulfonylphenyl)-N-[3-(3,5-difluorophenoxy)-4-(3-fluorophenyl)phenyl]acetamide]: at most 100 nM.

The values are drawn from patent US10259782B2, “ROR gamma (RORγ) modulators” (LEAD PHARMA HOLDING B.V., priority 2015, dated 2019).
